IC50 data for two compounds are collected here from patent US20250011302A1, “INDOLE BIPYRIMIDINE COMPOUND, AND INTERMEDIATE THEREOF, PREPARATION METHOD THEREFOR AND USE THEREOF” (SHANGHAI ALLIST PHARMACEUTICALS CO., LTD., priority 2021, published 2025).

For this assay, the system named is Ba/F3 EGFR-Del19/T790M/C797S cells. Briefly: Proliferation inhibitory activity against Ba/F3 EGFR-Del19/T790M/C797S cells (PrestoBlue method). Type of assay: cell-based, murine. As to conditions: Mus musculus, Ba/F3 cells stably expressing EGFR Del19/T790M/C797S, 72 hours. The method, then:
The proliferation inhibitory activity of the compounds in vitro against the Ba/F3 EGFR-Del19/T790M/C797S cells from the murine pro B cell line Ba/F3 that stably express EGFR proteins with Del19/T790M/C797S triple mutations, is determined by the PrestoBlue method.
Cell source: Ba/F3 EGFR-Del19/T790M/C797S cells are purchased from Crown Bioscience (Beijing) Co., Ltd.
Ba/F3 EGFR-Del19/T790M/C797S cells are cultured in RPMI1640 complete medium containing 10% fetal calf serum. Take Ba/F3 EGFR-Del19/T790M/C797S cells in the logarithmic growth phase, inoculate them in a 96-well plate at a cell density of 5000 cells/135 μl complete culture medium/well, and place them at a constant temperature incubator containing 5% CO2 at 37° C. for culturing for 24 hours. […]
Take out the 96-well cell culture plate from the CO2 constant temperature incubator, add 15 μl of Invitrogen™ PrestoBlue™ HS cell viability detection reagent (Cat. No.: P50201) to each well, and continue to incubate for 3 hours in the constant temperature incubator containing 5% CO2 at 37° C. Take out the 96-well cell culture plate and measure the fluorescence at the 560 nm excitation wavelength and 590 nm emission wavelength of a microplate reader. […]
Data were analyzed using GraphPad Prism 8.3 software, and nonlinear S-curve regression was used to fit the data to obtain a dose-effect curve, from which the IC50 value was calculated.

The IC50 is the midpoint of a concentration-inhibition curve. Lower therefore signals greater potency. For `CN(C)CCN(C)c1nc(OCC(F)(F)F)c(Nc2nccc(-c3cn(C)c4ccccc34)n2)cc1NC(=O)CCN(C)CCN(C)c1nc(OCC(F)(F)F)c(Nc2nccc(-c3cn(C)c4ccccc34)n2)cc1N` [Compound 1], the IC50 stood at 1860 nM.

Regarding `C=CC(=O)Nc1cc(Nc2nccc(-c3cn(C)c4ccccc34)n2)c(OCC(F)(F)F)nc1N(C)CCN(C)CCC(=O)Nc1cc(Nc2nccc(-c3cn(C)c4ccccc34)n2)c(OCC(F)(F)F)nc1N(C)CCN(C)C` [Compound 4], the midpoint of inhibition, the IC50, lay at 293 nM.
